Laboratory results as given in ChEMBL document CHEMBL1132883, “Cyclopentadienyltricarbonylrheniumbenzazepines: synthesis and binding affinity” (Bioorg Med Chem Lett, 2000).

How the values were obtained:
Format in all cases: tissue-based
[1] = target: 5-hydroxytryptamine receptor 2A (Rattus norvegicus, UniProt P14842); test: Compound was evaluated for affinity towards cerebral 5-hydroxytryptamine 2A receptor in homogenate of caudate putamen tissue from rat brain
D(1A) dopamine receptor = D(1A) dopamine receptor (Rattus norvegicus, UniProt P18901); test: Compound was evaluated for affinity towards dopamine D1-like receptor in homogenate of caudate putamen tissue from rat brain
Sequence of D(1A) dopamine receptor (P18901 whole entry): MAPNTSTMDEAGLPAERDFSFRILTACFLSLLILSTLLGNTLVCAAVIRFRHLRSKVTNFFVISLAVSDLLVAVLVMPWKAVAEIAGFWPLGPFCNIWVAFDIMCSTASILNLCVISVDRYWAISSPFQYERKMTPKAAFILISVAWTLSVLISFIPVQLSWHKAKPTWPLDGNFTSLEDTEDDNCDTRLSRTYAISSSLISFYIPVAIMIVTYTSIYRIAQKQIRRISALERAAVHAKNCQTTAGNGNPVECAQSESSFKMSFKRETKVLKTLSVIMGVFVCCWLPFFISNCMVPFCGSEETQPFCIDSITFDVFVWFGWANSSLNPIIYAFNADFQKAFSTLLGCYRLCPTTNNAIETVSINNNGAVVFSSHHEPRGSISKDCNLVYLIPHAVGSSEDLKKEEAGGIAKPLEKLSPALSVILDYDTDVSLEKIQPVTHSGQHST

[2] = target: T1, 5-hydroxytryptamine receptor 2C (Rattus norvegicus, UniProt P08909); test: Compound was evaluated for affinity towards cerebral 5-hydroxytryptamine 2C receptor in homogenate of caudate putamen tissue from rat brain
T1 sequence (P08909 whole entry): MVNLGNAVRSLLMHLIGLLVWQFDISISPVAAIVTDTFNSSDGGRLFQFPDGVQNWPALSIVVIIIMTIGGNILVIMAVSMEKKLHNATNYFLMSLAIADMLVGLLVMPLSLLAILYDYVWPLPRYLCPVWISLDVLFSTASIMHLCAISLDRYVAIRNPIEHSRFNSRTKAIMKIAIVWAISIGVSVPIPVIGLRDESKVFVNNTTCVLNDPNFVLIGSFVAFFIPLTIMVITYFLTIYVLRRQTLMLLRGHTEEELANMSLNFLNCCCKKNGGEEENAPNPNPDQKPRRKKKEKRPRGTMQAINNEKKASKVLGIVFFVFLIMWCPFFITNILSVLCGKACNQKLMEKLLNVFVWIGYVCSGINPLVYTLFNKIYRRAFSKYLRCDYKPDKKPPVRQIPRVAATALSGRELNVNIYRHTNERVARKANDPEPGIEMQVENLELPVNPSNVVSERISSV

Sequence of 5-hydroxytryptamine receptor 2A (P14842 whole entry): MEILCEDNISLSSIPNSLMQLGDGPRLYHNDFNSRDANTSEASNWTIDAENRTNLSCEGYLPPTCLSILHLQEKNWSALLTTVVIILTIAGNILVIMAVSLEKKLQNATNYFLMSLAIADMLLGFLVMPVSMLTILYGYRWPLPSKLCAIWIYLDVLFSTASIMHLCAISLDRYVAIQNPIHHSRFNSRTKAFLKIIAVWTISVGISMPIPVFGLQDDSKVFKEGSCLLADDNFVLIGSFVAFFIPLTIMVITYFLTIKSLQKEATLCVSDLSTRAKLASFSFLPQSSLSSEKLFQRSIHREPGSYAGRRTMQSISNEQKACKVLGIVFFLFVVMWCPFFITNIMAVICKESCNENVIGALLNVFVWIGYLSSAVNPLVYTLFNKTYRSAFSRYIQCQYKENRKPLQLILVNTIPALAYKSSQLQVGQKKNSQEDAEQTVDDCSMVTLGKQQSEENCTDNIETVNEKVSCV

Ki [1] [nM] | Ki (D(1A) dopamine receptor) [nM] | Ki [2] [nM] | Structure (SMILES)
22.1 | 0.7 | 11.8 | CN1CCc2cc(Cl)c(O)cc2C(c2ccccc2Br)C1 (stereo not drawn)
8.5 | 0.26 | 2.08 | CN1CCc2cc(Cl)c(O)cc2C(c2cccc(Br)c2)C1 (stereo not drawn)
10.8 |  | 12.5 | CN1CCc2cc(Cl)c(O)cc2[C@@H](c2ccccc2)C1 [SCH-23390]
